In ChEMBL document CHEMBL3991601, “The target landscape of clinical kinase drugs” (Science, 2017):
Activity calls are given as the source filed them.

What was measured:
[1] = biological target: Ras-related protein Rab-6A (Homo sapiens, UniProt P20340)
[2] = biological target: T1, Succinate--CoA ligase [ADP-forming] subunit beta, mitochondrial (Homo sapiens, UniProt Q9P2R7)
T1 sequence (Q9P2R7 whole entry): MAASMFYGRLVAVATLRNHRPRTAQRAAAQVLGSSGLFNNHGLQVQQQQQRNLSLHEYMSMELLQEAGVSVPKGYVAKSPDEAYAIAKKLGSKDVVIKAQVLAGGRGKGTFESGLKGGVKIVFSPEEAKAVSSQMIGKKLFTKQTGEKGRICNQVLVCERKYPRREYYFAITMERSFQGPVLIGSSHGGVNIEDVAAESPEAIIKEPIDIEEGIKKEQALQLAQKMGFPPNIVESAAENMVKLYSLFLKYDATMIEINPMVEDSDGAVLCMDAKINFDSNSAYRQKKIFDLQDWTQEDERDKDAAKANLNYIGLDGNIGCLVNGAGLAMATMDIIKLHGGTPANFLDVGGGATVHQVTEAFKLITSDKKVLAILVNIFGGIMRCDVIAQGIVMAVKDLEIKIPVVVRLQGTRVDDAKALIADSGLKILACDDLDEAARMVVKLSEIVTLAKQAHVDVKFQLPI

[3] = biological target: Elongation factor Tu, mitochondrial (Homo sapiens, UniProt P49411)
[4] = biological target: Calcium/calmodulin-dependent protein kinase type II subunit delta (Homo sapiens, UniProt Q13557)
[5] = biological target: T2, ATP-dependent RNA helicase DDX42 (Homo sapiens, UniProt Q86XP3)
T2 sequence (Q86XP3 whole entry): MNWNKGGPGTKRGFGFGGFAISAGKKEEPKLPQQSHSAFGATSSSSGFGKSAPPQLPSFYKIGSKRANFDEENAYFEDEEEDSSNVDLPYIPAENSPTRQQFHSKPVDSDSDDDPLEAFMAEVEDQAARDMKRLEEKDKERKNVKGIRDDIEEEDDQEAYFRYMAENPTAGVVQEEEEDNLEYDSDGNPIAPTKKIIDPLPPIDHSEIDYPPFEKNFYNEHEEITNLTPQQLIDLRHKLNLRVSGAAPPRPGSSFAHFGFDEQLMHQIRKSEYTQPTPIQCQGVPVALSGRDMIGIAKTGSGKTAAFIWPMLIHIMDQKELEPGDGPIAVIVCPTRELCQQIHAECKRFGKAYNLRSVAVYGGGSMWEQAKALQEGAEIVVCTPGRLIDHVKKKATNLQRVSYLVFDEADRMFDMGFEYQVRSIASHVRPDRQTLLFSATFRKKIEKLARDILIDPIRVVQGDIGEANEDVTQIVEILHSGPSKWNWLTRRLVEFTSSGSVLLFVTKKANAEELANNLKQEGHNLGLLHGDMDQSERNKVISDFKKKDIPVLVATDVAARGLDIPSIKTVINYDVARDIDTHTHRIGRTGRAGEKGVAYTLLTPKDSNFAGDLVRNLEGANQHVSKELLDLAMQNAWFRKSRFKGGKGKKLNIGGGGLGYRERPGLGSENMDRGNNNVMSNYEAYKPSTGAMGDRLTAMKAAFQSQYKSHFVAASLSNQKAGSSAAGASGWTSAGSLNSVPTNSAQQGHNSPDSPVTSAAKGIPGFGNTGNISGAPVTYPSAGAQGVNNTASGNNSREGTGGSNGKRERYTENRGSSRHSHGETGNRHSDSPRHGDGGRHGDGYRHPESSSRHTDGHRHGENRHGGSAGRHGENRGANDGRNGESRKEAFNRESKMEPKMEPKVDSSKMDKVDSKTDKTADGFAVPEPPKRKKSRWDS

Ephrin type-A receptor 7 = Ephrin type-A receptor 7 (Homo sapiens, UniProt Q15375)
[6] = biological target: Mitogen-activated protein kinase kinase kinase kinase 5 (Homo sapiens, UniProt Q9Y4K4)
[7] = biological target: Mitogen-activated protein kinase 7 (Homo sapiens, UniProt Q13164)
[8] = biological target: Serine/threonine-protein kinase 26 (Homo sapiens, UniProt Q9P289)
[9] = biological target: T3, Serine/threonine-protein kinase 4 (Homo sapiens, UniProt Q13043)
T3 sequence (Q13043 whole entry): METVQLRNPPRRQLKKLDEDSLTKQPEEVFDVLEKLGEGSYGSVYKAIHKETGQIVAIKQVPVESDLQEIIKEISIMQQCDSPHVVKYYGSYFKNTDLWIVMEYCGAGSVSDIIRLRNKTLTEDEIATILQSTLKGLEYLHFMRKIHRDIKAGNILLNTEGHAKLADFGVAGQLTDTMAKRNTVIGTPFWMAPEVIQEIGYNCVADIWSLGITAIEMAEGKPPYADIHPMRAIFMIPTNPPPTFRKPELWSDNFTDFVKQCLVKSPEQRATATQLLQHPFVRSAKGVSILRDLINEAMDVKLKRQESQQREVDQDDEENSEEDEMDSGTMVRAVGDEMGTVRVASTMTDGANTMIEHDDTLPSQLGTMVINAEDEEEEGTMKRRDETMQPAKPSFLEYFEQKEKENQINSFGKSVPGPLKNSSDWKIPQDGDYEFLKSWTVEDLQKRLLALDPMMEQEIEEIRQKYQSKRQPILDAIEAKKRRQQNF

[10] = biological target: Tyrosine-protein kinase ABL2 (Homo sapiens, UniProt P42684)
Aurora kinase A = biological target: T4, Aurora kinase A (Homo sapiens, UniProt O14965)
T4 sequence (O14965 whole entry): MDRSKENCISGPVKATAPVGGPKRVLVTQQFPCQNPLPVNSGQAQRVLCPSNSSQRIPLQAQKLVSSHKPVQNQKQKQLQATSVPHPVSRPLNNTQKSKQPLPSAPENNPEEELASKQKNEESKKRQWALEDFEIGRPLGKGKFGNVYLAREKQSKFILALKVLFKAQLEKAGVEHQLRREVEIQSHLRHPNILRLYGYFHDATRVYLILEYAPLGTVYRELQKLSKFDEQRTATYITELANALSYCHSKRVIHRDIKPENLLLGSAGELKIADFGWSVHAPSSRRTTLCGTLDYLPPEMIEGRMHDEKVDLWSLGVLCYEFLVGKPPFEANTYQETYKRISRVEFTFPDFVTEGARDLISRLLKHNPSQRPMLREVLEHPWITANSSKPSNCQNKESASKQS
Also: in the data inactive means no Kd found up to 30 µM.

Sequence of Tyrosine-protein kinase ABL2 (P42684 whole entry): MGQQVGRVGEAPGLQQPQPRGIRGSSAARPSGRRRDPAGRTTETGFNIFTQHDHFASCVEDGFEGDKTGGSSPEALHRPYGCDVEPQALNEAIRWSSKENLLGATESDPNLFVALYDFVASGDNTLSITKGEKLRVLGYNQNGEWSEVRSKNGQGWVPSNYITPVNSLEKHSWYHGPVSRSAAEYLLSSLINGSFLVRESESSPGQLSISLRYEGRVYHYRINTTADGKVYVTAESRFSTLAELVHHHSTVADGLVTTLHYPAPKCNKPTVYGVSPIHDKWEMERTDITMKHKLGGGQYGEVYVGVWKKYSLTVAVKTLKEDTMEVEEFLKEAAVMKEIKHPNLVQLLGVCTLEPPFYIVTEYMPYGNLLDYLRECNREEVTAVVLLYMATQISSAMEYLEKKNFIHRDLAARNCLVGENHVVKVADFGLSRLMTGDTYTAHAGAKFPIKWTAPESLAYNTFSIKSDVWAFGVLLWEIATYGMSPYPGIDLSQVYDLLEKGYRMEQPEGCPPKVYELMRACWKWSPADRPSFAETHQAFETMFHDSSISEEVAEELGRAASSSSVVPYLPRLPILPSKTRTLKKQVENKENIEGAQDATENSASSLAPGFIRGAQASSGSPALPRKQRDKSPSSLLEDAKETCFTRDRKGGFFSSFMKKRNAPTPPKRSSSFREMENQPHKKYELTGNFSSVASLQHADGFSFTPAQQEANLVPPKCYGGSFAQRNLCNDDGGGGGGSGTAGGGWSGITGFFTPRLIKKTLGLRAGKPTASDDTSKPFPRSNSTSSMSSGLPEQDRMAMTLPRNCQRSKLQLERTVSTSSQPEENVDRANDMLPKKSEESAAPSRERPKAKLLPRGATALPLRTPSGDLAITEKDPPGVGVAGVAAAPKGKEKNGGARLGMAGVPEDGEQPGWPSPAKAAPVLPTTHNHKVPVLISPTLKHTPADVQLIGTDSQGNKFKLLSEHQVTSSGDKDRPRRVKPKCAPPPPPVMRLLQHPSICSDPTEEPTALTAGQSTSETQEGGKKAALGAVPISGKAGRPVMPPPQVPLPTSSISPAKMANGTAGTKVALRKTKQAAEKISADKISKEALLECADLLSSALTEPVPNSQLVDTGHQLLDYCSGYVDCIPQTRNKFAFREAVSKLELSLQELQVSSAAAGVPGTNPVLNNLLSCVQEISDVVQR
Sequence of Ras-related protein Rab-6A (P20340 whole entry): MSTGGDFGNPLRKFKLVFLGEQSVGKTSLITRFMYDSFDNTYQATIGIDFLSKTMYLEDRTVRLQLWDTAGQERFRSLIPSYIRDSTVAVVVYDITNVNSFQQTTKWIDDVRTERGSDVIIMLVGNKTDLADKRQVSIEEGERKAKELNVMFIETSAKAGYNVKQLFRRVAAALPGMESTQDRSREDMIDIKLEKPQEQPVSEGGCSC
Sequence of Calcium/calmodulin-dependent protein kinase type II subunit delta (Q13557 whole entry): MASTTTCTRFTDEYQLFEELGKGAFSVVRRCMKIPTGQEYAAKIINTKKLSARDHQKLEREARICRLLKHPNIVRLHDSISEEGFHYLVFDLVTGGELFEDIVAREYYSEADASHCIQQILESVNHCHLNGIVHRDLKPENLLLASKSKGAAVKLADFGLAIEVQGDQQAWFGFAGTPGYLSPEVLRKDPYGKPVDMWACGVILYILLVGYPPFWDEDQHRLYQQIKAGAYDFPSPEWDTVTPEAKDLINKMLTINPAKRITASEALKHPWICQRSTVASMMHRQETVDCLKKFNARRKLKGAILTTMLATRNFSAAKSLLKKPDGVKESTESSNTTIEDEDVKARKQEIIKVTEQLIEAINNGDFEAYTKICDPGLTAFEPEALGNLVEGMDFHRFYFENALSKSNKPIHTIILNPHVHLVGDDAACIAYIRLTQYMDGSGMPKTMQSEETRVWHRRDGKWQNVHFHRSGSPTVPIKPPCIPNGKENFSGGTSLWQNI
Sequence of Serine/threonine-protein kinase 26 (Q9P289 whole entry): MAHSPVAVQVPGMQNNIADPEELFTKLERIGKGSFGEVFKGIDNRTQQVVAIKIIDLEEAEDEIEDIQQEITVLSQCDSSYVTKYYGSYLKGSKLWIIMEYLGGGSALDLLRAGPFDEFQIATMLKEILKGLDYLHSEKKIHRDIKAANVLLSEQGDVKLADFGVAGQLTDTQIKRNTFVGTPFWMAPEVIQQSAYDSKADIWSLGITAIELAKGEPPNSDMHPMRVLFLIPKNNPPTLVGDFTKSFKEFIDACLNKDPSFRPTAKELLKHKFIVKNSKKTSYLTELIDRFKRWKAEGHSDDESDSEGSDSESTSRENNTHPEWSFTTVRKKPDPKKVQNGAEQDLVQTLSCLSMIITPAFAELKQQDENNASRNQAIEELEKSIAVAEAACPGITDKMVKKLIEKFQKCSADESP
Sequence of Ephrin type-A receptor 7 (Q15375 whole entry): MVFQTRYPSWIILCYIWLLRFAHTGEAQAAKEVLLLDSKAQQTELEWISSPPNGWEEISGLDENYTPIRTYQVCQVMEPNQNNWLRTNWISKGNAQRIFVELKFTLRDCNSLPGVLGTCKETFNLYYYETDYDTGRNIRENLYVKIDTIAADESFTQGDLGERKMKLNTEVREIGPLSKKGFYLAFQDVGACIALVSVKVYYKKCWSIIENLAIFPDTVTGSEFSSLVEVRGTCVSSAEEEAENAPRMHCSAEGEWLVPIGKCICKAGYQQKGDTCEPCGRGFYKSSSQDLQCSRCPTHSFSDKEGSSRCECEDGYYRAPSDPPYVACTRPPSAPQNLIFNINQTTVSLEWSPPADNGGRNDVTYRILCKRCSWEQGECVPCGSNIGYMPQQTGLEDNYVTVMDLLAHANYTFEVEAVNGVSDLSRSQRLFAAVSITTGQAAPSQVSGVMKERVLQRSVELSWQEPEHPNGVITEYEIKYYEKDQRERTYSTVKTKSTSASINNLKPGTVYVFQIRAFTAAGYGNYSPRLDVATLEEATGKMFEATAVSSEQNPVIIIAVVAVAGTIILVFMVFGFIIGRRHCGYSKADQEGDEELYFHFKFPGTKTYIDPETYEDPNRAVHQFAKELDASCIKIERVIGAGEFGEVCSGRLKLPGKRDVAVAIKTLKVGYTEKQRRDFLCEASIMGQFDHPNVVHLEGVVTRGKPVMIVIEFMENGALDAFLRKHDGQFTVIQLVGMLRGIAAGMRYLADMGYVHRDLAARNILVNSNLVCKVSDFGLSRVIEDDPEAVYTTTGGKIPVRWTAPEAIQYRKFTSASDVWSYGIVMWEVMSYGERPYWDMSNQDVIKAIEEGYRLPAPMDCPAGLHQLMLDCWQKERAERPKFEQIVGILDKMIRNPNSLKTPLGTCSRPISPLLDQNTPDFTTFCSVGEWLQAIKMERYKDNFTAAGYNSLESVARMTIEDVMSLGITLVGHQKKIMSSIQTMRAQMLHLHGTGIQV
Sequence of Mitogen-activated protein kinase 7 (Q13164 whole entry): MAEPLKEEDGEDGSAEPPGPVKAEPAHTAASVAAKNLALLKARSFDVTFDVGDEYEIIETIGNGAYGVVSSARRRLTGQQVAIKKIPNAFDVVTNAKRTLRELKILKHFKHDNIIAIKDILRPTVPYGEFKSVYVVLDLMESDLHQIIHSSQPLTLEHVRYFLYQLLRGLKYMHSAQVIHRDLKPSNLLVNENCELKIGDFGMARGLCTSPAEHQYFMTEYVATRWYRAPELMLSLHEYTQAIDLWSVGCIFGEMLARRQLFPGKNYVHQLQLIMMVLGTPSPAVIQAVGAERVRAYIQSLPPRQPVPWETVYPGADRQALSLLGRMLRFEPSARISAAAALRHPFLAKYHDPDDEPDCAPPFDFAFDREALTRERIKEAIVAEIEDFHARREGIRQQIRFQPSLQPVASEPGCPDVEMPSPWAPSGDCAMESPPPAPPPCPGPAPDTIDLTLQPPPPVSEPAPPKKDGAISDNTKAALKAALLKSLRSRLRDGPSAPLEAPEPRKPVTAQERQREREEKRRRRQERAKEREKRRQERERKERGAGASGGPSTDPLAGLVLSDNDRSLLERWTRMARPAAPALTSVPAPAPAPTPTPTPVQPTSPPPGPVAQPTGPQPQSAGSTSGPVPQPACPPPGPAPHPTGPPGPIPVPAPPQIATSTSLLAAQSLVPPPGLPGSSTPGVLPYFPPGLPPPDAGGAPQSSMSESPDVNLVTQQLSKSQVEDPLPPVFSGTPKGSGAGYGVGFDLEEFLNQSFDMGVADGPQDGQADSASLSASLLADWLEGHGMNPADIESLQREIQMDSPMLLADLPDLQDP
Sequence of Mitogen-activated protein kinase kinase kinase kinase 5 (Q9Y4K4 whole entry): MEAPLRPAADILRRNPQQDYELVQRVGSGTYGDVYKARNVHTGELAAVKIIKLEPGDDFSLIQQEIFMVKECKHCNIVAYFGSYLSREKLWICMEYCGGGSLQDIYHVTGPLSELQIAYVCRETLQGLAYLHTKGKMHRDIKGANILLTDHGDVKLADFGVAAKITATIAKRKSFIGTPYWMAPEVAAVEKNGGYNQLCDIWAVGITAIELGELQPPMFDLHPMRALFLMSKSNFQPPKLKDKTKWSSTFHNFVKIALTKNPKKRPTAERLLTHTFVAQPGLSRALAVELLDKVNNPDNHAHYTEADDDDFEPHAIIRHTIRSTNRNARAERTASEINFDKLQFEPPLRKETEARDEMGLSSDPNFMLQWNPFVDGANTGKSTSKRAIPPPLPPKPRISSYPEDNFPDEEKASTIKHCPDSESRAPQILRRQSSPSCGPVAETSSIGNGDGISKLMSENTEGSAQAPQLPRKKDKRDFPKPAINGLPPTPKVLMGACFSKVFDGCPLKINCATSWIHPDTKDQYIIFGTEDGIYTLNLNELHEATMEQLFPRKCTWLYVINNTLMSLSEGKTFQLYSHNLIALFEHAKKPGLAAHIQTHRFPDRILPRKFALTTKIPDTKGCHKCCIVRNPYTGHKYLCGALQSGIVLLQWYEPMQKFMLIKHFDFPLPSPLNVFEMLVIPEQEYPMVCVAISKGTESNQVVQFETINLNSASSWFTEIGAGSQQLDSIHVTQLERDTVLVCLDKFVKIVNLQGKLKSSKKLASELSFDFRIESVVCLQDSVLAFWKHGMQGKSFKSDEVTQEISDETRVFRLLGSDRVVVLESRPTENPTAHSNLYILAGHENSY

Structure (SMILES)	Kd [1]	Kd [2]	Kd [3]	Kd [4]	Kd [5]	Kd (Ephrin type-A receptor 7)	Kd [6]	Kd [7]	Kd [8]	Kd [9]	Kd [10]	Kd (Aurora kinase A)
Cn1cc(C2=C(c3cn(C4CCN(Cc5ccccn5)CC4)c4ccccc34)C(=O)NC2=O)c2ccccc21 [ENZASTAURIN]	> 30 µM (inactive)	> 30 µM (inactive)	> 30 µM (inactive)									
CC(=O)c1cnc2ccc(-c3cc(Cl)c(O)c(Cl)c3)nc2c1N[C@H]1CC[C@H](CN(C)C)CC1	> 30 µM (inactive)	> 30 µM (inactive)	> 30 µM (inactive)	> 30 µM (inactive)	> 30 µM (inactive)	0.016 µM	0.071 µM (active)	> 30 µM (inactive)	> 30 µM (inactive)	0.067 µM (active)		
CCn1cc(-c2ccnc3[nH]c(-c4cccc(CN(C)C)c4)cc23)c(-c2ccc(NC(=O)N(C)C)cc2)n1 [GSK-1070916]	> 30 µM (inactive)		> 30 µM (inactive)	> 30 µM (inactive)	> 30 µM (inactive)	> 30 µM (inactive)	> 30 µM (inactive)	> 30 µM (inactive)	> 30 µM (inactive)	> 30 µM (inactive)	> 30 µM (inactive)	
CCNC(=O)C#Cc1ccc2c(c1)NC(=O)/C2=C(\Nc1ccc(CN(C)C)cc1)c1ccccc1	> 30 µM (inactive)	> 30 µM (inactive)	> 30 µM (inactive)	> 30 µM (inactive)	> 30 µM (inactive)	> 30 µM (inactive)	1.36 µM (active)	> 30 µM (inactive)	> 30 µM (inactive)	1.26 µM (active)	1.48 µM (active)	
Cc1[nH]c(/C=C2\C(=O)Nc3ccccc32)c(C)c1CCC(=O)O [ORANTINIB]			> 30 µM (inactive)		> 30 µM (inactive)	> 30 µM (inactive)		> 30 µM (inactive)	> 30 µM (inactive)		> 30 µM (inactive)	
Cc1csc(-c2nnc(Nc3ccc(Oc4ncccc4-c4ccnc(N)n4)cc3)c3ccccc23)c1 [AMG-900]	> 30 µM (inactive)		> 30 µM (inactive)	> 30 µM (inactive)	> 30 µM (inactive)	> 30 µM (inactive)	1.71 µM (active)	> 30 µM (inactive)	3.02 µM (active)	> 30 µM (inactive)	> 30 µM (inactive)	
CNC(=O)c1ccccc1Sc1ccc2c(/C=C/c3ccccn3)n[nH]c2c1 [AXITINIB]	> 30 µM (inactive)	> 30 µM (inactive)	> 30 µM (inactive)		> 30 µM (inactive)							

Now from value to molecule:

Kd [1]	Kd [2]	Kd [3]	Kd [4]	Kd [5]	Kd (Ephrin type-A receptor 7)	Kd [6]	Kd [7]	Kd [8]	Kd [9]	Kd [10]	Kd (Aurora kinase A)	Structure (SMILES)
> 30 µM (inactive)	> 30 µM (inactive)	> 30 µM (inactive)		> 30 µM (inactive)	> 30 µM (inactive)		> 30 µM (inactive)	> 30 µM (inactive)	> 30 µM (inactive)			COc1cc(Nc2ncc3c(n2)-c2ccc(Cl)cc2C(c2c(F)cccc2OC)=NC3)ccc1C(=O)O [ALISERTIB]
> 30 µM (inactive)	> 30 µM (inactive)	> 30 µM (inactive)	> 30 µM (inactive)	> 30 µM (inactive)	0.615 µM (active)	5.36 µM (active)	> 30 µM (inactive)	> 30 µM (inactive)		0.422 µM (active)		CCS(=O)(=O)c1cccc(-c2cc(C(=O)NC3CCN(C)CC3)c(C)c3[nH]c4ncc(C)cc4c23)c1 [TAK-901]
	> 30 µM (inactive)	> 30 µM (inactive)										N#CC[C@H](C1CCCC1)n1cc(-c2ncnc3[nH]ccc23)cn1 [RUXOLITINIB]
> 30 µM (inactive)		> 30 µM (inactive)	> 30 µM (inactive)	> 30 µM (inactive)		> 30 µM (inactive)	> 30 µM (inactive)	> 30 µM (inactive)	> 30 µM (inactive)	> 30 µM (inactive)	> 30 µM (inactive)	Cc1cc(C(=O)NOCCO)c(Nc2ccc(I)cc2F)n(C)c1=O [AZD-8330]
> 30 µM (inactive)		> 30 µM (inactive)	> 30 µM (inactive)	> 30 µM (inactive)		> 30 µM (inactive)	> 30 µM (inactive)	> 30 µM (inactive)	> 30 µM (inactive)	> 30 µM (inactive)	> 30 µM (inactive)	C#Cc1cccc(Nc2ncnc3cc(OC)c(OCCCCCCC(=O)NO)cc23)c1 [CUDC-101]
> 30 µM (inactive)		> 30 µM (inactive)		> 30 µM (inactive)	> 30 µM (inactive)		2.96 µM	> 30 µM (inactive)	0.828 µM (active)	> 30 µM (inactive)		CC(=O)NCC(=O)N1[C@@H]2CC[C@H]1c1ccc(Nc3ncc(C(F)(F)F)c(NC4CCC4)n3)cc12 [PF-03814735]
> 30 µM (inactive)	> 30 µM (inactive)	> 30 µM (inactive)		> 30 µM (inactive)								C[C@@H](Oc1cc(-n2cnc3ccc(CN4CCN(C)CC4)cc32)sc1C(N)=O)c1ccccc1C(F)(F)F [GSK-461364]
> 30 µM (inactive)	> 30 µM (inactive)	> 30 µM (inactive)		> 30 µM (inactive)								O=C(NOCCO)c1cc(CN2OCCCC2=O)c(F)c(F)c1Nc1ccc(I)cc1F [RO-4987655]
> 30 µM (inactive)	> 30 µM (inactive)	> 30 µM (inactive)			> 30 µM (inactive)			> 30 µM (inactive)	> 30 µM (inactive)	> 30 µM (inactive)		NC(=O)c1c(OCc2c(F)cc(Br)cc2F)nsc1NC(=O)NCCCCN1CCCC1 [OSI-632]
> 30 µM (inactive)	> 30 µM (inactive)	> 30 µM (inactive)	> 30 µM (inactive)	> 30 µM (inactive)	0.008 µM (active)		> 30 µM (inactive)	> 30 µM (inactive)	> 30 µM (inactive)	1.08 µM (active)		O=C(Nc1c[nH]nc1-c1nc2cc(CN3CCOCC3)ccc2[nH]1)NC1CC1 [AT-9283]
